Measured values taken from US20260248768A1, “MYC PROGRAM AS A MARKER OF RESPONSE TO ENZALUTAMIDE IN PROSTATE CANCER” (Rutgers, The State University of New Jersey, priority 2022, published 2026).

What was measured:
Assay type in all cases: cell-based
LNCaP cells = assay: Dose-response cell viability assay in LNCaP cells; conditions: both Enzalutamide-naïve and Enzalutamide-resistant conditions, dose-dependent manner (FIG. 14A)
Protocol: (§1) FIGS. 14A and 14B show MYC inhibition reduces viability and colony formation in Enzalutamide resistant conditions. (FIG. 14A) Drug response curves of Enzalutamide naïve LNCaP or Enzalutamide-resistant LNCaP cells treated with Enzalutamide and/or MYC-i975. (FIG. 14B) Colony formation assay using Enzalutamide-resistant LNCaP cells t (LNCaP-Enza-Res) in intact (treated with DMSO), treated with enzalutamide (10 μM), MYC-i975 (2 μM), or a combination of Enzalutamide+MYC-i975 (10 μM+2 μM). Cells were grown in the presence of respective drugs. Bars represent quantification of Crystal Violet trapped by migrated cells. P-value is estimated utilizing one-tailed Welch t-test. * p<0.05, *** p≤0.001.
(§2) Generation of Enzalutamide-resistant cell lines: LNCaP (clone FDG) and C42B cells were purchased from ATCC and were grown in RPMI1640 media (GIBCO #11875093) supplemented with 10% Fetal Bovine Serum (FBS, Corning Cat #35-011-CV) and maintained at […] in and 5% CO2. Enzalutamide powder was purchased from Sellekchem (cat #S1250) and re-suspended in DMSO. Cells were plated in 6 well plates and treated either with DMSO, or with Enzalutamide (20 μM), refreshed every 4 days for up to 3 months until the resistance emerged. RNA from cells was extracted on indicated days using the methods described below. […]

C42B cells = assay: Dose-response cell viability assay in C42B cells; conditions: both Enzalutamide-naïve and Enzalutamide-resistant conditions, dose-dependent manner (FIG. 13A)
Protocol: (§3) FIGS. 13A-13F show MYC targeting is beneficial for patients in Enzalutamide-resistant conditions. (FIG. 13A) Drug sensitivity curves of Enzalutamide-naïve, or Enzalutamide-resistant (EnzaRes) C42B cells treated with MYCi975. (FIG. 13B) Colony formation assay using Enzalutamide-resistant (EnzaRes) C42B cells in Intact (treated with DMSO), treated with Enzalutamide (10 μM), MYCi975 (2 μM), or a combination of Enzalutamide+MYCi975 (10 μM+2 μM). Cells were grown in the presence of respective drugs. Representative images are shown. P-value was estimated using a one-tailed Welch t-test. (FIG. 13C) Boyden chamber-based in vitro migration assay using Enzalutamide-resistant (EnzaRes) C42B cells in Intact (treated with DMSO), treated with Enzalutamide (10 μM), MYCi975 (2 μM), or a combination of Enzalutamide+MYCi975 (10 μM+2 μM). Bars represent the quantification of Crystal Violet trapped by migrated cells. P-value was estimated using a one-tailed Welch t-test. (FIG. 13D) Expression of NME2 in Intact and Enzalutamide-resistant (EnzaRes) C42B cells, using the qRT-PCR. P-value was estimated using the one-tailed Welch t-test. […] Bars represent the quantification of Crystal Violet trapped by migrated cells. * p-value <0.05, ** p-value≤0.01, *** p-value≤0.001 […]

LNCaP-EnzaRes cells = assay: Colony formation assay, Enzalutamide-resistant LNCaP cells; conditions: MYCi975 2 μM, Enzalutamide 10 μM, compared to Intact (DMSO)
Protocol: as §1, §2

C42B-EnzaRes cells [1] = assay: Colony formation assay, Enzalutamide-resistant C42B cells; conditions: MYCi975 2 μM, Enzalutamide 10 μM, compared to Intact (DMSO)
Protocol: as §3

C42B-EnzaRes cells [2] = assay: Boyden chamber-based in vitro migration assay; conditions: MYCi975 2 μM, Enzalutamide 10 μM, vs Intact (DMSO)
Protocol: FIGS. 13A-13F show MYC targeting is beneficial for patients in Enzalutamide-resistant conditions. (FIG. 13A) Drug sensitivity curves of Enzalutamide-naïve, or Enzalutamide-resistant (EnzaRes) C42B cells treated with MYCi975. (FIG. 13B) Colony formation assay using Enzalutamide-resistant (EnzaRes) C42B cells in Intact (treated with DMSO), treated with Enzalutamide (10 μM), MYCi975 (2 μM), or a combination of Enzalutamide+MYCi975 (10 μM+2 μM). Cells were grown in the presence of respective drugs. Representative images are shown. P-value was estimated using a one-tailed Welch t-test. (FIG. 13C) Boyden chamber-based in vitro migration assay using Enzalutamide-resistant (EnzaRes) C42B cells in Intact (treated with DMSO), treated with Enzalutamide (10 μM), MYCi975 (2 μM), or a combination of Enzalutamide+MYCi975 (10 μM+2 μM). Bars represent the quantification of Crystal Violet trapped by migrated cells. P-value was estimated using a one-tailed Welch t-test. (FIG. 13D) Expression of NME2 in Intact and Enzalutamide-resistant (EnzaRes) C42B cells, using the qRT-PCR. P-value was estimated using the one-tailed Welch t-test. […] Bars represent the quantification of Crystal Violet trapped by migrated cells. * p-value <0.05, ** p-value≤0.01, *** p-value≤0.001

MYC = assay: Doxycycline-inducible shRNA knockdown of NME2, MYC expression by Western blot; conditions: C4-2B cells; 0-2000 ng/mL doxycycline for 96 hours; Western blot (FIG. 15)
Protocol: Finally, C4-2B cells expressing doxycycline-inducible shRNA targeting NME2 were generated using the targeting sequence […] (SEQ ID NO: 9). Cells were treated with 0-2000 ng/mL doxycycline for 96 hours and NME2 and MYC expression were evaluated by Western blot.

Compound | cell viability (LNCaP cells) | cell viability (C42B cells) | colony formation (LNCaP-EnzaRes cells) | colony formation (C42B-EnzaRes cells [1]) | cell migration (C42B-EnzaRes cells [2]) | MYC expression (MYC)
Cn1nc(C(F)(F)F)cc1-c1ccc(OCc2ccc(Cl)cc2)c(-c2ccc(Cl)c(C(F)(F)F)c2)c1O [MYCi975] | striking reduction of the cell viability | striking reduction of the cell viability | reduced the colony formation | reduced the colony formation | significant reduction in cell migration | –
shRNA targeting NME2: doxycycline-inducible shRNA targeting NME2, targeting sequence GAAATCAGCCTATGGTTTAAG | – | – | – | – | – | suppresses MYC expression
